In brackets after ≈: the same amount, converted by molar mass.
Legend:
[1] = tested on: various microbes of paper-industry waste paste; conditions: inoculated with microbes, within two days
Description: The test was conducted so that each solution to be investigated was taken into two plastic sample flasks, 60 ml into each. One of the two flasks was inoculated with 2 g of paper-industry waste paste containing various microbes, such paste being known as a favorable growth medium for microbes. After mixing, the samples were allowed to stand at room temperature for 2 days.
Culture tests were performed on the samples in a laboratory specialized in microbiologic assays.
The assay of aerobic bacteria was performed using a PCA substrate and incubation for 2 days at 37° C. For the assay of anaerobic bacteria, Brewer's agar and incubation for 2 days in anaerobic vessels at 37° C. were used. In the assay of slime-forming bacteria, PCA-agar+saccharose 50 g/l and incubation for 2 days at 37° C. were used. The slimy colonies were counted. Yeasts and molds were assayed using a Saboraud maltose agar substrate and incubation for 3-4 days at 30° C.

[2] = tested on: Pseudomonas putila bacterium; conditions: cited from earlier work

SMILES: O=C[O-].[K+] [potassium formate]
- Effect on inoculated microbes [1]: does not form a growth medium for microbes

SMILES: O=CO [formic acid]
- EC 50 value [2]: 46.7 mg/L (≈ 1010 µM)

SMILES: CCC(=O)O [propionic acid]
- EC 50 value [2]: 59.6 mg/L (≈ 805 µM)

Reference: US6835323B2, “Aqueous hydraulic medium” (Kemira Oyj, priority 1999, dated 2004)
